Source: patent US9656949B2, “Substituted carboxylic acid derivatives as aggrecanase inhibitors for the treatment of osteoarthritis” (MERCK PATENT GMBH, priority 2013, dated 2017)
In brackets after ≈: the same amount, converted by molar mass.

Columns and labels:
Solubility pH7.4 = format: physicochemical; conditions: pH 7.4, aqueous buffer
[1] = molecular target: T1, human recombinant AdamTS-5 (Homo sapiens, UniProt Q9UNA0); assay: Biochemical activity testing of ADAMTS-5: aggrecan peptide cleavage assay (AlphaScreen); conditions: 4.5 nM human recombinant AdamTS-5, biotinylated 43mer aggrecan peptide, 180 min at 37° C.; read-out: IC50 [ADAM-NTS5]M
T1 construct: purchased R&D systems, Wiesbaden, Germany
T1 sequence (Q9UNA0 262-930): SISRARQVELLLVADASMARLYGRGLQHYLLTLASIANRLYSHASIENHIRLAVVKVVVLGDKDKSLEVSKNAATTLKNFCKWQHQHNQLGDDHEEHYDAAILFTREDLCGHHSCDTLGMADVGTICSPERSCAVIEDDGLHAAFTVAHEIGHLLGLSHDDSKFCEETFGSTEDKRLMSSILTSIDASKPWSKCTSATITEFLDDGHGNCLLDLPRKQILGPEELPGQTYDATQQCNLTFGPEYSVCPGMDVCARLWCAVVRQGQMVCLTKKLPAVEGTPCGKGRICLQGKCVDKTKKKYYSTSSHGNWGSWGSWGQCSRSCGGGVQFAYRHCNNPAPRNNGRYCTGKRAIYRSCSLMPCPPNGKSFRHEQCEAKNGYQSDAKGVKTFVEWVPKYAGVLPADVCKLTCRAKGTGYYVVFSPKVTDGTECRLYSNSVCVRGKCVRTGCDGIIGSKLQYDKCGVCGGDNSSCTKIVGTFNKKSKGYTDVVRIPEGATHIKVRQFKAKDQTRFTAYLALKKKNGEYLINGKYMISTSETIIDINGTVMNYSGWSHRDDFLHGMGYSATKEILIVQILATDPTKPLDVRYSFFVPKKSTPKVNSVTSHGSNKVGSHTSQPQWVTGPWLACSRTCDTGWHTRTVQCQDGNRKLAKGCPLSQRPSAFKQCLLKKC
Method: ADAMTS-5 is a metallo protease with glutamyl-endoprotease activity and cleaves aggrecan core protein at E373-A374 in the interglobular domain. To fully analyse the inhibitory potential of compounds on AdamTS-5 activity an Alphascreen® assay with a biotinylated 43mer aggrecan oligopeptide as substrate was performed. Cleavage by ADAMTS-5 caused production of a neoepitop N-terminus ARGS at the C-terminal fragment. The detection of this product is performed with streptavidin-AlphaScreen® donor beads binding to the biotin label and an anti-neoepitop (“ARGSV”) antibody that anchors anti-mouse IgG-coated AlphaLisa® acceptor beads to the other end of the generated fragment. Thereby, donor and acceptor beads get in proximity and a luminescence Alphascreen® signal is generated via the release of singlet oxygen. The cleavage activity was detectable directly by the increase in Alphascreen® signal.
The aggrecan peptide cleavage assay was performed as 384 well AlphaScreen® (Perkin Elmer) assay format in Perkin Elmer 384 AlphaPlate (proxiplate) shallow well microtiter plates and was used for high throughput screen in a total assay volume of 10 μl. 4.5 nM human recombinant AdamTS-5 (R&D systems, Wiesbaden, Germany) and 30 nM biotinylated peptide […]-K(bio) (custom-made, Biosynthan, Berlin, Germany) as substrate were incubated in a total volume of 6 μl (100 mM Tris/HCl, 150 mM NaCl, 10 mM CaCl2, 0.05% Brij®-35, 1% DMSO, 0.084% BSA, pH 7.5) in the absence or presence of the test compound (10 dilution concentrations) for 180 min at 37° C. The reaction was stopped and the first detection step performed by the addition of 2 μl detection solution 1 (48 mM EDTA, 8 nM aggrecan antibody N-term neoepitope ARG, mouse monoclonal BC3 antibody (MDBioproducts, Egg, Switzerland), 100 μg/ml Streptavidin Alphascreen® donor beads (Perkin Elmer, Rodgau, Germany) in 100 mM Tris/HCl, 150 mM NaCl, 0.05% Brij®-35, 0.1% BSA, pH 7.5). After an one-hour incubation at 37° C. 2 μl of the second detection solution (25 μg/ml anti-mouse AlphaLisa® acceptor beads (Perkin Elmer, Rodgau, Germany) in 100 mM Tris/HCl, 150 mM NaCl, 0.05% Brij®-35, 0.1% BSA, pH 7.5 were added. The plates were incubated for […] in the dark.
The AlphaScreen signal was measured with an Envision multimode reader (Perkin Elmer LAS Germany GmbH) with the Alphascreen protocol from Perkin Elmer (laser mode) emission wavelength 570 nm. The full value used was the inhibitor-free reaction. For the zero value a pharmacological reference was used. The inhibitory values (IC50) for the compounds were determined using either the program Symyx Assay Explorer® or Condosseo® from GeneData.

| solubility (Solubility pH7.4) | IC50 [1] | Structure (SMILES) |
| --- | --- | --- |
| 850 µg/mL | 13 nM | COc1cc(CNC(=O)[C@H](CC(C)C(=O)O)NC(=O)c2ccc(-c3ccccc3)cc2)cc(OC)c1OC (mixture of isomers) [Compound 1, 4-[(Biphenyl-4-carbonyl)-amino]-2-methyl-4-(3,4,5-trimethoxy-benzylcarbamoyl)-butyric acid] |
| 159 µg/mL (≈ 334 µM) | 62 nM | C[C@@H](Cc1ccc(F)cc1)NC(=O)[C@H](C[C@H](C)C(=O)O)NC(=O)c1ccc(-c2ccccc2)cc1 (single isomer, unassigned) [Compound 3] |
| 303 µg/mL (≈ 636 µM) | 530 nM | CC(Cc1ccc(F)cc1)NC(=O)[C@H](C[C@H](C)C(=O)O)NC(=O)c1ccc(-c2ccccc2)cc1 (single isomer, unassigned) [Compound 17] |
| 912 µg/mL (≈ 1770 µM) | 47 nM | C[C@@H](C[C@H](NC(=O)c1ncc(-c2ccc(F)cc2)s1)C(=O)NC(C)(C)Cc1ccc(F)cc1)C(=O)O [Compound 2, (2S,4S)-4-[2-(4-Fluoro-phenyl)-1,1-dimethyl-ethylcarbamoyl]-4-{[5-(4-fluoro-phenyl)-thiazole-2-carbonyl]-amino}-2-methyl-butyric acid] |
| – | 66 nM | C[C@@H](C[C@H](NC(=O)c1ccc(-c2ccccc2)cc1)C(=O)NC(C)(C)Cc1cccnc1)C(=O)O [Compound 4, (2S,4S)-4-[(Biphenyl-4-carbonyl)-amino]-4-(1,1-dimethyl-2-pyridin-3-yl-ethylcarbamoyl)-2-methyl-butyric acid] |
| 60 µg/mL (≈ 106 µM) | 150 nM | CC(C)(Cc1ccc(F)cc1)NC(=O)[C@H](C[C@H](Cc1ccccc1)C(=O)O)NC(=O)c1ccc(-c2ccccc2)cc1 [Compound 6, (2S,4S)-2-Benzyl-4-[(biphenyl-4-carbonyl)-amino]-4-[2-(4-fluoro-phenyl)-1,1-dimethyl-ethylcarbamoyl]-butyric acid] |
| 798 µg/mL (≈ 1610 µM) | 180 nM | C[C@@H](C[C@H](NC(=O)c1ccc(-c2ccn(C)n2)cc1)C(=O)NC(C)(C)Cc1ccc(F)cc1)C(=O)O [Compound 9, (2S,4S)-4-[2-(4-Fluoro-phenyl)-1,1-dimethyl-ethylcarbamoyl]-2-methyl-4-[4-(1-methyl-1H-pyrazol-3-yl)-benzoylamino]-butyric acid] |
| 883 µg/mL (≈ 1800 µM) | 190 nM | C[C@@H](C[C@H](NC(=O)c1ccc(-c2ccccn2)cc1)C(=O)NC(C)(C)Cc1ccc(F)cc1)C(=O)O [Compound 10, (2S,4S)-4-[2-(4-Fluoro-phenyl)-1,1-dimethyl-ethylcarbamoyl]-2-methyl-4-(4-pyridin-2-yl-benzoylamino)-butyric acid] |
| 648 µg/mL (≈ 1270 µM) | 250 nM | C[C@@H](C[C@H](NC(=O)c1ccc(-c2ccccc2)cc1F)C(=O)NC(C)(C)Cc1ccc(F)cc1)C(=O)O [Compound 11, (2S,4S)-4-[(3-Fluoro-biphenyl-4-carbonyl)-amino]-4-[2-(4-fluoro-phenyl)-1,1-dimethyl-ethylcarbamoyl]-2-methyl-butyric acid] |
| 743 µg/mL (≈ 1440 µM) | 320 nM | C[C@@H](C[C@H](NC(=O)C1CCN(c2ccc(F)cc2)CC1)C(=O)NC(C)(C)Cc1ccc(F)cc1)C(=O)O [Compound 12, (2S,4S)-4-[2-(4-Fluoro-phenyl)-1,1-dimethyl-ethylcarbamoyl]-4-{[1-(4-fluoro-phenyl)-piperidine-4-carbonyl]-amino}-2-methyl-butyric acid] |
| 855 µg/mL (≈ 1740 µM) | 330 nM | C[C@@H](C[C@H](NC(=O)c1ccc(-c2ccccc2)cn1)C(=O)NC(C)(C)Cc1ccc(F)cc1)C(=O)O [Compound 13, 4-[2-(4-Fluoro-phenyl)-1,1-dimethyl-ethylcarbamoyl]-2-methyl-4-[(5-phenyl-pyridine-2-carbonyl)-amino]-butyric acid] |
| 775 µg/mL (≈ 1580 µM) | 350 nM | C[C@@H](C[C@H](NC(=O)c1ccc(-c2ccccc2)nc1)C(=O)NC(C)(C)Cc1ccc(F)cc1)C(=O)O [Compound 14, (2S,4S)-4-[2-(4-Fluoro-phenyl)-1,1-dimethyl-ethylcarbamoyl]-2-methyl-4-[(6-phenyl-pyridine-3-carbonyl)-amino]-butyric acid] |
| 924 µg/mL (≈ 1850 µM) | 360 nM | C[C@@H](C[C@H](NC(=O)N1CCN(c2ccccc2)CC1)C(=O)NC(C)(C)Cc1ccc(F)cc1)C(=O)O [Compound 15, (2S,4S)-4-[2-(4-Fluoro-phenyl)-1,1-dimethyl-ethylcarbamoyl]-2-methyl-4-[(4-phenyl-piperazine-1-carbonyl)-amino]-butyric acid] |
| 365 µg/mL (≈ 743 µM) | 390 nM | C[C@@H](C[C@H](NC(=O)c1ccc(-c2cccnc2)cc1)C(=O)NC(C)(C)Cc1ccc(F)cc1)C(=O)O [Compound 16, (2S,4S)-4-[2-(4-Fluoro-phenyl)-1,1-dimethyl-ethylcarbamoyl]-2-methyl-4-(4-pyridin-3-yl-benzoylamino)-butyric acid] |
| 805 µg/mL (≈ 1620 µM) | 1200 nM | C[C@@H](C[C@H](NC(=O)N1CCC(c2ccccc2)CC1)C(=O)NC(C)(C)Cc1ccc(F)cc1)C(=O)O [Compound 18, (2S,4S)-4-[2-(4-Fluoro-phenyl)-1,1-dimethyl-ethylcarbamoyl]-2-methyl-4-[(4-phenyl-piperidine-1-carbonyl)-amino]-butyric acid] |
| 637 µg/mL (≈ 1250 µM) | 1200 nM | Cc1cnc(-c2ccc(C(=O)N[C@@H](C[C@H](C)C(=O)O)C(=O)NC(C)(C)Cc3ccc(F)cc3)cc2)s1 [Compound 19, (2S,4S)-4-[2-(4-Fluoro-phenyl)-1,1-dimethyl-ethylcarbamoyl]-2-methyl-4-[4-(5-methyl-thiazol-2-yl)-benzoylamino]-butyric acid] |
| 493 µg/mL (≈ 956 µM) | 1400 nM | C[C@@H](C[C@H](NC(=O)c1cnc(-c2ccc(F)cc2)s1)C(=O)NC(C)(C)Cc1ccc(F)cc1)C(=O)O [Compound 20, (2S,4S)-4-[2-(4-Fluoro-phenyl)-1,1-dimethyl-ethylcarbamoyl]-4-{[2-(4-fluoro-phenyl)-thiazole-5-carbonyl]-amino}-2-methyl-butyric acid] |
